{"source": "patent US20200316159A1", "about": "“SUSTAINED RELEASE COMPOSITIONS OF KAPPA-OPIOID RECEPTOR AGONIST” (JT PHARMACEUTICALS, INC., priority 2016, published 2020)", "assay_type_in_all_cases": "in vivo, rat", "key": {"[1]": {"assay": "Maximum tolerated dose determination", "conditions": "p.o., six rats per dose level, observed 4 days", "procedure": "Maximum Tolerated Dose Determination.\nIn order to determine the maximum dose of JT09 that can be tolerated, its dose level was increased until the maximum tolerated dose (MTD) was identified or, if MTD dose was not reached, the maximum-administered dose (MAD). […] Six rats were included at each dose level (50, 70, and 90 mg/kg, p.o.). The animals were observed twice daily; body weights and detailed clinical observations for behavioral toxicity (porphyrin staining, changes in activity levels, changes in grooming habits, convulsions, catalepsy, muscular rigidity, and excessive vocalization) were made daily for 4 days after dosing at each level. Doses were chosen based on the compound's ED50 for analgesic potency."}, "[2]": {"tested_on": "dysphoria (time spent immobile)", "assay": "Forced swim assay", "procedure": "The most common reason for discontinuing development of kappa agonists is the induction of dysphoria, which is mediated through CNS kappa receptors. To test for this side effect, we used an established model: the repeated forced swim assay. Rats were placed in a container with 30° C. water without an escape avenue. Time spent immobile during the last 4 min of each trial was recorded. Immobility was defined by a posture in which the forelimbs were motionless in front of the body, hind legs display limited motion, and the tail is directed outward. On day one, rats were placed in the water for 15 min. On the following day, placements consisted of four trials lasting 6 min each, separated by 10 mins. Salvorin A (1 mg/kg, i.p.) or JT09 (20 mg/kg, p.o.) were administered immediately before the first placement. Time spent immobile is a diagnostic of dysphoria and typically increases with each trial. Salvinorin A (a centrally available kappa agonist) was used as a positive control due to its known […] effects such as dysphoria."}, "[3]": {"tested_on": "rewarding properties (compartment preference)", "assay": "Conditioned place preference", "conditions": "20 mg/kg p.o., alternate treatment over eight days; listed as JT09", "procedure": "Conditioned Place Preference.\nTo test whether JT09 was able to condition appetitive behaviors, we used a conditioned place procedure. On day one, rats were habituated to a three-compartment apparatus for 10 min. One compartment was black with a grid floor and the other white with a rod floor. A smaller center compartment was gray with a solid floor. The amount of time spent in each compartment was recorded. The side in which the rats spent the least amount of time on habituation day was paired with JT09, in that rats receive the compound via oral gavage immediately before compartment placement. On alternating days, rats were treated with saline and confined in the opposite compartment. Rats were confined to each compartment for 25 minutes. Test rats were orally gavaged with saline and given access to the entire apparatus for 10 minutes. The amount of time spent in each compartment was recorded."}}, "note": "Entries after “also recorded” stand apart in the source; their conditions may differ.", "data": [{"smiles": "CCCC[C@@H](NC(=O)[C@@H](Cc1ccccc1)NC(=O)[C@H](N)Cc1ccccc1)C(=O)N[C@H](CCCCN(C)C)C(=O)NCc1ccncc1", "note": "[Compound 9]", "values": [{"measurement": "maximum administered dose (MAD) without mortality, loss of more than 10% body weight or overt signs of toxicity", "setting": "[1]", "result": 90, "unit": "mg/kg"}, {"measurement": "immobility time in forced swim versus saline", "setting": "[2]; 20 mg/kg p.o., listed as JT09", "result": "statistically indistinguishable; also recorded: did not induce more than a baseline time of immobility"}, {"measurement": "immobility time in forced swim relative to salvinorin A", "setting": "[2]; JT09 20 mg/kg p.o. versus salvinorin A 1 mg/kg i.p., all trials", "result": "lower amounts of time spent immobile"}, {"measurement": "conditioned place preference for drug-paired compartment over saline", "setting": "[3]", "result": "did not develop a preference; also recorded: had no effect on compartment placement"}]}]}
